pIC50: −log10 of the molar value.
How the values were obtained:
GST-hRIPK1 (8-327) = GST-hRIPK1 (8-327) (Homo sapiens (Human), UniProt Q13546); experiment: Fluorescent Polarization Binding (FP Binding) assay
[1] = tested on: FADD-deficient Jurkat cells; experiment: Cellular necroptosis assay (human TNFα-induced necrosis, CellTiter-Glo); format: cell-based; settings: Homo sapiens, Jurkat, 48 h, TNFα 10 ng/mL, read-out: Cell IC50

Chain of GST-hRIPK1 (8-327) (Q13546 8-327): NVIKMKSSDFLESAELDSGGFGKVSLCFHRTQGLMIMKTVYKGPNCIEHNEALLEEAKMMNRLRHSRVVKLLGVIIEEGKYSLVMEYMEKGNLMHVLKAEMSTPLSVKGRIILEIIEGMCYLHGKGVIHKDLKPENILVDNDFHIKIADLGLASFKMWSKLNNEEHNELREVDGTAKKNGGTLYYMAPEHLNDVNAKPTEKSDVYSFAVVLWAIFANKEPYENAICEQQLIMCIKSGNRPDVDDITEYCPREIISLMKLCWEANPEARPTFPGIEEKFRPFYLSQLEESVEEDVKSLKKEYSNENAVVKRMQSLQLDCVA

| SMILES | pIC50 (GST-hRIPK1 (8-327)) | pIC50 [1] |
| --- | --- | --- |
| C[C@H]1Oc2cccnc2N(C)C(=O)[C@H]1NC(=O)c1cc(Cc2ccccc2)on1 [Example 112, 5-benzyl-N-((2R,3S)-2,5-dimethyl-4-oxo-2,3,4,5-tetrahydropyrido[3,2-b][1,4]oxazepin-3-yl)isoxazole-3-carboxamide] | 6.00 to 10.00 | 6.00 to 10.00 |
| CN1C(=O)[C@@H](NC(=O)c2nn(Cc3ccccc3)cc2F)CCc2c1cnn2C [Example 114A, (S)-1-benzyl-N-(1,4-dimethyl-5-oxo-1,4,5,6,7,8-hexahydropyrazolo[4,3-b]azepin-6-yl)-4-fluoro-1H-pyrazole-3-carboxamide] | 6.00 to 10.00 | 6.00 to 10.00 |
| CN1C(=O)[C@@H](NC(=O)c2nn(Cc3ccc(F)cc3)cc2F)COc2cccnc21 [Example 115, (S)-4-fluoro-1-(4-fluorobenzyl)-N-(5-methyl-4-oxo-2,3,4,5-tetrahydropyrido[3,2-b][1,4]oxazepin-3-yl)-1H-pyrazole-3-carboxamide] | 6.00 to 10.00 | 6.00 to 10.00 |
| O=C(N[C@H]1CCc2ccccc2-n2ccnc21)c1cc(Oc2ccccc2F)cnn1 [Example 116, (S)—N-(5,6-dihydro-4H-benzo[f]imidazo[1,2-a]azepin-4-yl)-5-(2-fluorophenoxy)pyridazine-3-carboxamide] | 6.00 to 10.00 | 6.00 to 10.00 |
| C[C@H]1Oc2cccnc2N(C)C(=O)[C@H]1NC(=O)c1cc(Oc2ccccc2F)ccn1 [Example 117, N-((2R,3S)-2,5-dimethyl-4-oxo-2,3,4,5-tetrahydropyrido[3,2-b][1,4]oxazepin-3-yl)-4-(2-fluorophenoxy)picolinamide] | 6.00 to 10.00 | 6.00 to 10.00 |
| CN1C(=O)[C@@H](NC(=O)c2nnc(Cc3ccccc3)s2)[C@H]2C[C@H]2c2cccnc21 [Example 120A, 5-benzyl-N-((1aS,2S,8bR)-4-methyl-3-oxo-1,1a,2,3,4,8b-hexahydrocyclopropa[d]pyrido[2,3-b]azepin-2-yl)-1,3,4-thiadiazole-2-carboxamide] | 6.00 to 10.00 | 6.00 to 10.00 |
| C[C@H]1Oc2cccnc2N(C)C(=O)[C@H]1NC(=O)c1cc(Cc2ccccc2)no1 [Example 122, 3-benzyl-N-((2R,3S)-2,5-dimethyl-4-oxo-2,3,4,5-tetrahydropyrido[3,2-b]oxazepin-3-yl)isoxazole-5-carboxamide] | 6.00 to 10.00 | 6.00 to 10.00 |
| O=C(N[C@H]1COc2cccnc2NC1=O)c1ncc(Cc2ccccc2)s1 [Example 123, (S)-5-benzyl-N-(4-oxo-2,3,4,5-tetrahydropyrido[3,2-b][1,4]oxazepin-3-yl)thiazole-2-carboxamide] | 6.00 to 10.00 | 6.00 to 10.00 |
| C[C@H]1Oc2cccnc2N(C)C(=O)[C@H]1NC(=O)c1ncc(Cc2ccccc2)s1 [Example 124, 5-benzyl-N-((2R,3S)-2,5-dimethyl-4-oxo-2,3,4,5-tetrahydropyrido[3,2-b][1,4]oxazepin-3-yl)thiazole-2-carboxamide] | 6.00 to 10.00 | 6.00 to 10.00 |
| CN1C(=O)[C@@H](NC(=O)c2nnc(Cc3ccccc3)[nH]2)CC2(CC2)c2cccnc21 [Example 125B, (S)-5-benzyl-N-(9′-methyl-8′-oxo-6′,7′,8′,9′-tetrahydrospiro[cyclopropane-1,5′-pyrido[2,3-b]azepin]-7′-yl)-4H-1,2,4-triazole-3-carboxamide] | 6.00 to 10.00 | 6.00 to 10.00 |
| CN1C(=O)[C@@H](NC(=O)c2nc(F)c(Cc3ccccc3)s2)COc2cccnc21 [Example 126, (S)-5-benzyl-4-fluoro-N-(5-methyl-4-oxo-2,3,4,5-tetrahydropyrido[3,2-b][1,4]oxazepin-3-yl)thiazole-2-carboxamide] | 6.00 to 10.00 | 6.00 to 10.00 |
| C[C@H]1Oc2cccnc2N(C)C(=O)[C@H]1NC(=O)c1nn(Cc2cccc(C#N)c2)cc1F [Example 128, 1-(3-Cyanobenzyl)-N-((2R,3S)-2,5-dimethyl-4-oxo-2,3,4,5-tetrahydropyrido[3,2-b][1,4]oxazepin-3-yl)-4-fluoro-1H-pyrazole-3-carboxamide] | 6.00 to 10.00 | 6.00 to 10.00 |
| CN1C(=O)[C@@H](NC(=O)c2nn(Cc3cc(F)cc(C#N)c3)cc2F)COc2cccnc21 [Example 130, (S)-1-(3-Cyano-5-fluorobenzyl)-4-fluoro-N-(5-methyl-4-oxo-2,3,4,5-tetrahydropyrido[3,2-b][1,4]oxazepin-3-yl)-1H-pyrazole-3-carboxamide] | 6.00 to 10.00 | 6.00 to 10.00 |
| C[C@H]1Oc2cccnc2N(C)C(=O)[C@H]1NC(=O)c1nn(Cc2ccccc2)cc1Cl [Example 132, 1-Benzyl-4-chloro-N-((2R,3S)-2,5-dimethyl-4-oxo-2,3,4,5-tetrahydropyrido[3,2-b][1,4]oxazepin-3-yl)-1H-pyrazole-3-carboxamide] | 6.00 to 10.00 | 6.00 to 10.00 |
| CN1C(=O)[C@@H](NC(=O)c2nn(Cc3ccccc3F)cc2F)COc2cccnc21 [Example 133, (S)-4-Fluoro-1-(2-fluorobenzyl)-N-(5-methyl-4-oxo-2,3,4,5-tetrahydropyrido[3,2-b][1,4]oxazepin-3-yl)-1H-pyrazole-3-carboxamide] | 6.00 to 10.00 | 6.00 to 10.00 |
| CN1C(=O)[C@@H](NC(=O)c2nn(Cc3cccc(F)c3)cc2F)COc2cccnc21 [Example 135, (S)-4-Fluoro-1-(3-fluorobenzyl)-N-(5-methyl-4-oxo-2,3,4,5-tetrahydropyrido[3,2-b][1,4]oxazepin-3-yl)-1H-pyrazole-3-carboxamide] | 6.00 to 10.00 | 6.00 to 10.00 |
| C[C@H]1Oc2cccnc2N(C)C(=O)[C@H]1NC(=O)c1ncn(Cc2ccccc2)n1 [Example 136, 1-Benzyl-N-((2R,3S)-2,5-dimethyl-4-oxo-2,3,4,5-tetrahydropyrido[3,2-b][1,4]oxazepin-3-yl)-1H-1,2,4-triazole-3-carboxamide] | 6.00 to 10.00 | 6.00 to 10.00 |
| CN1C(=O)[C@@H](NC(=O)c2nn(Cc3cncc(F)c3)cc2F)COc2cccnc21 [Example 137, (S)-4-Fluoro-1-((5-fluoropyridin-3-yl)methyl)-N-(5-methyl-4-oxo-2,3,4,5-tetrahydropyrido[3,2-b][1,4]oxazepin-3-yl)-1H-pyrazole-3-carboxamide] | 6.00 to 10.00 | 6.00 to 10.00 |
| C[C@H]1Oc2cccnc2N(C)C(=O)[C@H]1NC(=O)c1nnc(C2(c3ccccc3)CC2)o1 [Example 138, N-((2R,3S)-2,5-dimethyl-4-oxo-2,3,4,5-tetrahydropyrido[3,2-b][1,4]oxazepin-3-yl)-5-(1-phenylcyclopropyl)-1,3,4-oxadiazole-2-carboxamide] | 6.00 to 10.00 | 6.00 to 10.00 |
| C[C@H]1Oc2cccnc2N(C)C(=O)[C@H]1NC(=O)c1cc(Oc2ccccc2F)cnn1 [Example 139, N-((2R,3S)-2,5-dimethyl-4-oxo-2,3,4,5-tetrahydropyrido[3,2-b][1,4]oxazepin-3-yl)-5-(2-fluorophenoxy)pyridazine-3-carboxamide] | 6.00 to 10.00 | 6.00 to 10.00 |
| C[C@H]1Oc2cccnc2N(C)C(=O)[C@H]1NC(=O)c1cn(Cc2ccccc2)cn1 [Example 140, 1-Benzyl-N-((2R,3S)-2,5-dimethyl-4-oxo-2,3,4,5-tetrahydropyrido[3,2-b][1,4]oxazepin-3-yl)-1H-imidazole-4-carboxamide] | 6.00 to 10.00 | 6.00 to 10.00 |
| C[C@H]1Oc2cccnc2N(C)C(=O)[C@H]1NC(=O)c1nn(Cc2ccc(F)cc2)cc1F [Example 143, N-((2R,3S)-2,5-dimethyl-4-oxo-2,3,4,5-tetrahydropyrido[3,2-b][1,4]oxazepin-3-yl)-4-fluoro-1-(4-fluorobenzyl)-1H-pyrazole-3-carboxamide] | 6.00 to 10.00 | 6.00 to 10.00 |
| CN1C(=O)[C@@H](NC(=O)c2nn(Cc3cccc(C#N)c3)cc2F)COc2cccnc21 [Example 144, (S)-1-(3-cyanobenzyl)-4-fluoro-N-(5-methyl-4-oxo-2,3,4,5-tetrahydropyrido[3,2-b][1,4]oxazepin-3-yl)-1H-pyrazole-3-carboxamide] | 6.00 to 10.00 | 6.00 to 10.00 |
| CN1C(=O)[C@@H](NC(=O)c2nnc(C3(c4ccccc4)CC3)o2)CCc2cccnc21 [Example 145A, (S)—N-(9-methyl-8-oxo-6,7,8,9-tetrahydro-5H-pyrido[2,3-b]azepin-7-yl)-5-(1-phenylcyclopropyl)-1,3,4-oxadiazole-2-carboxamide] | 6.00 to 10.00 | 6.00 to 10.00 |
| C[C@H]1Oc2cc(S(C)(=O)=O)cnc2N(C)C(=O)[C@H]1NC(=O)c1nnc(Cc2ccccc2)[nH]1 [Example 147, 5-benzyl-N-((2R,3S)-2,5-dimethyl-8-(methylsulfonyl)-4-oxo-2,3,4,5-tetrahydropyrido[3,2-b][1,4]oxazepin-3-yl)-4H-1,2,4-triazole-3-carboxamide] | 6.00 to 10.00 | 6.00 to 10.00 |
| CN1C(=O)[C@@H](NC(=O)c2cc(Oc3ccccc3F)cnn2)COc2cccnc21 [Example 149, (S)-5-(2-fluorophenoxy)-N-(5-methyl-4-oxo-2,3,4,5-tetrahydropyrido[3,2-b][1,4]oxazepin-3-yl)pyridazine-3-carboxamide] | 6.00 to 10.00 | 6.00 to 10.00 |
| C[C@H]1Oc2cc(C#N)cnc2N(C)C(=O)[C@H]1NC(=O)c1nnc(Cc2ccccc2)[nH]1 [Example 150, 5-benzyl-N-((2R,3S)-8-cyano-2,5-dimethyl-4-oxo-2,3,4,5-tetrahydropyrido[3,2-b][1,4]oxazepin-3-yl)-4H-1,2,4-triazole-3-carboxamide] | 6.00 to 10.00 | 6.00 to 10.00 |
| CN1C(=O)[C@@H](NC(=O)c2nc(C#N)c(Cc3ccccc3)s2)COc2cccnc21 [Example 151, (S)-5-benzyl-4-cyano-N-(5-methyl-4-oxo-2,3,4,5-tetrahydropyrido[3,2-b][1,4]oxazepin-3-yl)thiazole-2-carboxamide] | 6.00 to 10.00 | 6.00 to 10.00 |
| CN1C(=O)[C@@H](NC(=O)c2nn(Cc3cccc(C#N)c3)cc2F)CCc2cccnc21 [Example 152B, (S)-1-(3-cyanobenzyl)-4-fluoro-N-(9-methyl-8-oxo-6,7,8,9-tetrahydro-5H-pyrido[2,3-b]azepin-7-yl)-1H-pyrazole-3-carboxamide] | 6.00 to 10.00 | 6.00 to 10.00 |
